US4065620A, “3-(Substituted) vinyl cephalosporins” (Eli Lilly and Company, priority 1971, dated 1977)
Values after ≈ are worked out from the molar mass of the structure shown.

How the values were obtained:
Type in all cases: cell-based
[1] = test system: Gram positive and Gram negative microorganisms; assay: Standard gradient plate assay, Gram positive and Gram negative microorganisms
Description: (§1) The data which follow are minimum inhibitory concentrations (MIC) in micrograms of compound per milliliter of agar medium in standard gradient plate in vitro tests against various Gram positive and Gram negative microorganisms. The data given here are for compounds satisfying the general formula [drawing 25] where R and X are as defined in the table which follows:
(§2) 1. The gradient plate procedure used is essentially that described by
(§3) Bryson and Szybalski in 1952 (Science, 116, pp. 45-46). The inoculum

[2] = test system: B. subtilis; assay: Bioautograph test against B. subtilis; conditions: at 1 microgram/milliliter
Description: Each of the cis-and trans-isomers of tert-butyl 3-(2'-cyanovinyl)-7-phenoxyacetamido-3-cephem-4-carboxylate from Example 17 was in turn treated with 98-100 percent formic acid for 1 hour at room temperature to cleave the tert-butyl ester groups therefrom. After evaporation under reduced pressure of the excess formic acid, the acid residue was separated as an oil.

[3] = test system: Salmonella heidellberg X-514; assay: Gradient plate in vitro MIC, X514; conditions: X514, G-; for MIC: Salmonella, read-out: minimum inhibitory concentration (MIC)
Description: as §1, §2, §3
(§4) 3. Gram negative microorganism identifications:
X-514 is Salmonella heidellberg

[4] = test system: Serratia marcescens X-99; assay: Gradient plate in vitro MIC, X99; conditions: X99, G-; for MIC: Serratia marcescens, read-out: minimum inhibitory concentration (MIC)
Description: as §1, §2, §3, §4
X-99 is Serratia marcescens

[5] = test system: Pseudomonas aerogenosa X-528; assay: Gradient plate in vitro MIC, X528; conditions: X528, G-; for MIC: Pseudomonas, read-out: minimum inhibitory concentration (MIC)
Description: as §1, §2, §3, §4
X-528 is Pseudomonas aerogenosa

[6] = test system: Escherichia coli N-10; assay: Gradient plate in vitro MIC, N10; conditions: N10, G-; for MIC: Escherichia coli, read-out: minimum inhibitory concentration (MIC)
Description: as §1, §2, §3, §4
N-10 is Escherichia coli

[7] = test system: penicillin-resistant Staphylococcus aureus strain V-32; assay: Gradient plate in vitro MIC, strain V32; conditions: V32, G+; for MIC: Staphylococcus aureus, read-out: minimum inhibitory concentration (MIC)
Description: as §1, §2, §3
(§5) treatment method used for penicillin-resistant Staphlococci was reported
(§6) by Godzeski et al. in Antimicrobial Agents and Chemotherapy, May, 1961,
(§7) 2. Gram positive microorganism identifications are all
(§8) penicillin-resistant Staphylococcus aureus strains V-41, V-32, X-400,
(§9) V-84. X-400 is also Methicillin-resistant.

[8] = test system: penicillin-resistant Staphylococcus aureus strain V-41; assay: Gradient plate in vitro MIC, strain V41; conditions: V41, G+, read-out: minimum inhibitory concentration (MIC)
Description: as §1, §2, §3, §5, §6, §7, §8, §9

[9] = test system: Enterobacter aerogenes X-68; assay: Gradient plate in vitro MIC, X68; conditions: X68, G-; for MIC: Klebsiella aerogenes, read-out: minimum inhibitory concentration (MIC)
Description: as §1, §2, §3, §4
X-68 is Enterobacter aerogenes

[10] = test system: penicillin-resistant Staphylococcus aureus strain V-84; assay: Gradient plate in vitro MIC, strain V84; conditions: V84, G+; for MIC: Staphylococcus aureus, read-out: minimum inhibitory concentration (MIC)
Description: as §1, §2, §3, §5, §6, §7, §8, §9

[11] = test system: Klebsiella pneumonia X-26; assay: Gradient plate in vitro MIC, X26; conditions: X26, G-; for MIC: Klebsiella pneumoniae, read-out: minimum inhibitory concentration (MIC)
Description: as §1, §2, §3, §4
X-26 is Klebsiella pneumonia

[12] = test system: Schigella sp. N-9; assay: Gradient plate in vitro MIC, N9; conditions: N9, G-; for MIC: read-out: minimum inhibitory concentration (MIC)
Description: as §1, §2, §3

[13] = test system: penicillin-resistant, Methicillin-resistant Staphylococcus aureus strain X-400; assay: Gradient plate in vitro MIC, strain X400; conditions: X400, G+, penicillin- and Methicillin-resistant; for MIC: Staphylococcus aureus, read-out: minimum inhibitory concentration (MIC)
Description: as §1, §2, §3, §5, §6, §7, §8, §9

[14] = test system: Sarcina lutea; assay: Bioautograph against Sarcina lutea
Description: (§10) A solution of 25 mg. of tert-butyl 7-(2'-tert-butoxycarbonylamino-2'-phenylacetamido)-3-(2'-tert-butoxycarbonylvinyl)-3-cephem-4-carboxylate, prepared as described in Example 19, in 5 cc of 98-100 percent formic acid was allowed to stand for 1 hour at room temperature. After evaporating under reduced pressure the formic acid, the acid residue was taken up in trifluoroacetic acid and the NMR spectrum was taken.

[15] = test system: Gram positive and Gram negative microorganisms; assay: Disc plate assay; conditions: variety of Gram positive and Gram negative microorganisms
Description: as §10

| Compound | MIC [3] [µg/mL] | MIC [4] [µg/mL] | MIC [5] [µg/mL] | MIC [6] [µg/mL] | MIC [7] [µg/mL] | MIC [8] [µg/mL] | MIC [9] [µg/mL] | MIC [10] [µg/mL] | MIC [11] [µg/mL] | MIC [12] [µg/mL] | MIC [13] [µg/mL] | further results |
| --- | --- | --- | --- | --- | --- | --- | --- | --- | --- | --- | --- | --- |
| CCOC(=O)C=CC1=C(C(=O)O)N2C(=O)C(NC(=O)COc3ccccc3)[C@H]2SC1 (stereo partly shown) [Example 3, 3-(2'-ethoxycarbonylvinyl)-7-phenoxyacetamido-3-cephem-4-carboxylic acid] |  |  |  |  |  |  |  |  |  |  |  | activity as an antibiotic in gradient plate tests ([1]; variety of both Gram positive and Gram negative microorganisms): showed activity as an antibiotic |
| N#C/C=C\C1=C(C(=O)O)N2C(=O)C(NC(=O)COc3ccccc3)C2SC1 (single isomer, unassigned; isomer 3) [Example 20 cis-isomer, 3-(2-cyanovinyl)-7-phenoxyacetamido-3-cephem-4-carboxylic acid] |  |  |  |  |  |  |  |  |  |  |  | antibiotic activity zone on bioautograph [2]: large antibiotic activity zone |
| N#C/C=C/C1=C(C(=O)O)N2C(=O)C(NC(=O)COc3ccccc3)C2SC1 (single isomer, unassigned; isomer 3) [Example 20 trans-isomer, 3-(2-cyanovinyl)-7-phenoxyacetamido-3-cephem-4-carboxylic acid] |  |  |  |  |  |  |  |  |  |  |  | antibiotic activity zone on bioautograph [2]: large antibiotic activity zone; gradient plate MIC, trans-isomer compared with cis-isomer ([1]; against both Gram positive and Gram negative microorganisms): more active than the cis-isomer |
| CCOC(=O)C=CC1=C(C(=O)O)N2C(=O)C(NC(=O)C(C(=O)O)c3ccccc3)[C@H]2SC1 (stereo partly shown) [7-(2'-carboxy-2'-phenylacetamido)-3-(2'-ethoxycarbonylvinyl)-3-cephem-4-carboxylic acid] | 0.8 (≈ 1.74 µM) | 0.6 (≈ 1.3 µM) | 42.2 (≈ 91.6 µM) | 6.3 (≈ 13.7 µM) | 10.3 (≈ 22.4 µM) | 7.9 (≈ 17.2 µM) | 3 (≈ 6.52 µM) | 11.4 (≈ 24.8 µM) | 2.5 (≈ 5.43 µM) | 1 (≈ 2.17 µM) | > 20 |  |
| O=C(O)C=CC1=C(C(=O)O)N2C(=O)C(NC(=O)C(C(=O)O)c3ccccc3)[C@H]2SC1 (stereo partly shown) [7-(2'-carboxy-2'-phenylacetamido)-3-(2'-carboxyvinyl)-3-cephem-4-carboxylic acid] | 1 (≈ 2.31 µM) | < 8 | 29.5 (≈ 68.2 µM) | 36.5 (≈ 84.4 µM) | > 20 | > 20 | 2 (≈ 4.63 µM) | > 20 | 35 (≈ 80.9 µM) | 7 (≈ 16.2 µM) | > 20 |  |
| CCOC(=O)C=CC1=C(C(=O)O)N2C(=O)C(NC(=O)Cc3cccs3)C2SC1 (stereo not shown) | 4.7 (≈ 11.1 µM) | > 50 | > 50 | 3.8 (≈ 8.99 µM) | 7.5 (≈ 17.8 µM) | 6.2 (≈ 14.7 µM) | 3.3 (≈ 7.81 µM) | 7.1 (≈ 16.8 µM) | 5.3 (≈ 12.5 µM) | 2.6 (≈ 6.15 µM) | > 20 |  |
| O=C(O)C=CC1=C(C(=O)O)N2C(=O)C(NC(=O)[C@H](O)c3ccccc3)C2SC1 (stereo partly shown) | 0.6 (≈ 1.48 µM) | > 50 | > 50 | 5.7 (≈ 14.1 µM) | > 20 | > 20 | 1 (≈ 2.47 µM) | 11.2 (≈ 27.7 µM) | 5 (≈ 12.4 µM) | 3.3 (≈ 8.16 µM) | > 20 |  |
| 3-(2-cyanovinyl)-7-phenoxyacetamido-3-cephem-4-carboxylic acid |  |  |  |  |  |  |  |  |  |  |  | minimum inhibitory concentration (MIC) [3]: 12.1 micrograms of compound per mil; minimum inhibitory concentration (MIC) [4]: 21.0 micrograms of compound per mil; minimum inhibitory concentration (MIC) [5]: 162.0 micrograms of compound per mil; minimum inhibitory concentration (MIC) [6]: 102.0 micrograms of compound per mil; minimum inhibitory concentration (MIC) [7]: 6.1 micrograms of compound per mil; minimum inhibitory concentration (MIC) [9]: 38.2 micrograms of compound per mil; minimum inhibitory concentration (MIC) [10]: 3.8 micrograms of compound per mil; minimum inhibitory concentration (MIC) [11]: 110.0 micrograms of compound per mil; minimum inhibitory concentration (MIC) [12]: 40.4 micrograms of compound per mil; minimum inhibitory concentration (MIC) [13]: > 20 micrograms of compound per mil |
| NC(C(=O)NC1C(=O)N2C(C(=O)O)=C(C=CC(=O)O)CS[C@H]12)c1ccccc1 (stereo partly shown) [Example 23, 7-(2'-amino-2'-phenylacetamido)-3-(2'-carboxyvinyl)-3-cephem-4-carboxylic acid] |  |  |  |  |  |  |  |  |  |  |  | antibiotically active zone on bioautograph ([14]; acid residue after formic acid/trifluoroacetic acid): only one antibiotically active zone; polarity of the active zone on the bioautograph ([14]; compared with cephalexin): more polar than cephalexin; antibiotic activity in disc plate assay [15]: antibiotic activity |
